This experiment concerns the target T1, Androgen Receptor (Homo sapiens, UniProt P10275).
T1 construct: endogenous in cells; host or cells: VCaP cells
T1 sequence (P10275 1-920): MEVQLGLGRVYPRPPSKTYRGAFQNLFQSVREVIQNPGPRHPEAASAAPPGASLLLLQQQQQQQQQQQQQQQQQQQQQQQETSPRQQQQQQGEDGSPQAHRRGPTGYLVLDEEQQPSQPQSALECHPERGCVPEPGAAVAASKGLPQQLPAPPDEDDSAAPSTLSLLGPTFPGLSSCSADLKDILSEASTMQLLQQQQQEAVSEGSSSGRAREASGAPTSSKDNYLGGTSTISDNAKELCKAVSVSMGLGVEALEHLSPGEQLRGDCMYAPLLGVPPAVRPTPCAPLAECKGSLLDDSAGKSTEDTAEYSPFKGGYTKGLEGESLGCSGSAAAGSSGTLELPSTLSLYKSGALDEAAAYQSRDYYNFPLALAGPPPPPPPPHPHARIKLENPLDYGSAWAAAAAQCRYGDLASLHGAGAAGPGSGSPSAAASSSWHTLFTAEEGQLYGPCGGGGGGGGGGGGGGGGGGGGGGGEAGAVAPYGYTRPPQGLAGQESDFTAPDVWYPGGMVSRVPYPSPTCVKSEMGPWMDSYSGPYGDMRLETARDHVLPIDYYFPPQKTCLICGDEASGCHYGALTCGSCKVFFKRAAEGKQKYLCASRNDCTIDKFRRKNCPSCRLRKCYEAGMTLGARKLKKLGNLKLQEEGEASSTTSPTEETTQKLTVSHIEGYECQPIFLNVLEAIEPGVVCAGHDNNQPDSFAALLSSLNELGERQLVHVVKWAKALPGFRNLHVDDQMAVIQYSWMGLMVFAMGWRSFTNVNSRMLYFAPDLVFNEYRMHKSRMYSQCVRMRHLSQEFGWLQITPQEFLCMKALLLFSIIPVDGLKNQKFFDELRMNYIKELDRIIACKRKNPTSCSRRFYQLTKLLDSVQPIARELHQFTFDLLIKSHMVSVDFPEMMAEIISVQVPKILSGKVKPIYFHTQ
Nature of the experiment: Androgen Receptor ELISA assay (PathScan AR ELISA) in VCaP cells: AR degradation, Dmax and DC50. It is filed as cell-based. Conditions: Table 35; for DC50: read-out: VCaP DC50; for Dmax: VCaP. The procedure, abridged: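 After 24 h exposure of VCaP cells (charcoal-stripped serum, 0.1 nM R1881 agonist, 0.1% DMSO) to seven half-log compound concentrations, residual AR in lysates was measured by PathScan ELISA (TMB absorbance, 450 nm). Cells were plated at 30,000/well and grown at least 3 days beforehand.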

[1] abbreviates: VCaP cells, read-out: VCaP Dmax (%).

DC50 and Dmax data for 27 compounds are collected here from patent publication US11427548B2 (Arvinas Operations, Inc., priority 2015, dated 2022).

Read-outs that look alike come from different tables or passages of the source.

Usually DC50 stands for the concentration at which degradation of the target reaches its halfway point. Usually Dmax stands for the greatest extent of degradation seen.

Regarding `CNCC(NC(=O)[C@@H]1C[C@@H](O)CN1C(=O)[C@@H](NC(=O)COCCCCCOc1ccc(C(=O)N[C@H]2C(C)(C)[C@H](Oc3ccc(C#N)c(Cl)c3)C2(C)C)cc1)C(C)(C)C)c1ccc(-c2scnc2C)cc1` (stereo partly drawn) [Example 508], the DC50 (VCaP cells) is under 50 nM. Under setting [1], the Dmax was over 71%.
Turning to `CC(C)(C)[C@H](NC(=O)COCCCCCOc1ccc(C(=O)N[C@H]2C(C)(C)[C@H](Oc3ccc(C#N)c(Cl)c3)C2(C)C)cc1)C(=O)N1C[C@H](O)C[C@H]1C(=O)O` [Example 509], the 50% degradation concentration (DC50) (VCaP cells) was in the range of 51 to 500 nM. Further, the greatest degradation seen (Dmax) under setting [1] is 26 to 50%.
For the compound `COc1cc(C#N)ccc1CNC(=O)[C@@H]1C[C@@H](O)CN1C(=O)[C@@H](NC(=O)COCCCCCNc1ccc(C(=O)N[C@H]2C(C)(C)[C@H](Oc3ccc(C#N)c(Cl)c3)C2(C)C)cc1)C(C)(C)C` [Example 510], the half-maximal degradation concentration (DC50) (VCaP cells) is under 50 nM. For the same compound, the greatest degradation seen (Dmax) under setting [1] was in the range of 51 to 70%.
Take `CNC(=O)c1ccc(CNC(=O)[C@@H]2C[C@@H](O)CN2C(=O)[C@@H](NC(=O)COCCCCCNc2ccc(C(=O)N[C@H]3C(C)(C)[C@H](Oc4ccc(C#N)c(Cl)c4)C3(C)C)cc2)C(C)(C)C)cc1` [Example 511]: the half-maximal degradation concentration (DC50) (VCaP cells) is under 50 nM. In addition, under setting [1], the greatest degradation seen (Dmax) fell in the range of 51 to 70%.
For `CC(C)(C)[C@H](NC(=O)COCCCCCNc1ccc(C(=O)N[C@H]2C(C)(C)[C@H](Oc3ccc(C#N)c(Cl)c3)C2(C)C)cc1)C(=O)N1C[C@H](O)C[C@H]1C(=O)NCc1ccc(C(=O)O)cc1` [Example 512], the DC50 (VCaP cells) fell in the range of 51 to 500 nM. Further, the greatest degradation seen (Dmax) under setting [1] was 51 to 70%.
With `Cc1ncsc1-c1ccc(CNC(=O)[C@@H]2C[C@@H](O)CN2C(=O)[C@@H](NC(=O)COCCNc2ccc(-c3c(F)cc(C(=O)N[C@H]4C(C)(C)[C@H](Oc5ccc(C#N)c(Cl)c5)C4(C)C)cc3F)cn2)C(C)(C)C)cc1` [Example 513], for the setting “VCaP cells”, the DC50 is under 50 nM. For the same compound, the maximal degradation (Dmax) under setting [1] is over 71%.
For `CNC[C@@H](NC(=O)[C@@H]1C[C@@H](O)CN1C(=O)[C@@H](NC(=O)COCCCCCOc1ccc(C(=O)N[C@H]2C(C)(C)[C@H](Oc3ccc(C#N)c(Cl)c3)C2(C)C)cc1)C(C)(C)C)c1ccc(-c2scnc2C)cc1` [Example 514] the same measures were over 501 nM and 26 to 50%.
Consider `CNC[C@H](NC(=O)[C@@H]1C[C@@H](O)CN1C(=O)[C@@H](NC(=O)COCCCCCOc1ccc(C(=O)N[C@H]2C(C)(C)[C@H](Oc3ccc(C#N)c(Cl)c3)C2(C)C)cc1)C(C)(C)C)c1ccc(-c2scnc2C)cc1` [Example 515], for which the 50% degradation concentration (DC50) (VCaP cells) is under 50 nM. Under setting [1], the greatest degradation seen (Dmax) was over 71%.
On to `Cc1ncsc1-c1ccc(CNC(=O)[C@@H]2C[C@@H](O)CN2C(=O)[C@@H](NC(=O)COCCCCCNc2ccc(C(=O)N[C@H]3C(C)(C)[C@H](Oc4ccc(C#N)c(Cl)c4)C3(C)C)cc2)C(C)(C)C)cn1` [Example 516], for which the half-maximal degradation concentration (DC50) (VCaP cells) is under 50 nM. Further, the Dmax under setting [1] was over 71%.
As to `C[C@H](NC(=O)[C@@H]1C[C@@H](O)CN1C(=O)[C@@H](NC(=O)COCCCCCNc1ccc(C(=O)N[C@H]2C(C)(C)[C@H](Oc3ccc(C#N)c(Cl)c3)C2(C)C)cc1)C(C)(C)C)c1ccc(-c2c[nH]nn2)cc1` [Example 517], the DC50 (VCaP cells) is under 50 nM. Also, the Dmax under setting [1] was over 71%.
In the case of `CC(C)(C)[C@H](NC(=O)COCCCCCNc1ccc(C(=O)N[C@H]2C(C)(C)[C@H](Oc3ccc(C#N)c(Cl)c3)C2(C)C)cc1)C(=O)N1C[C@H](O)C[C@H]1C(=O)NCc1ccc(-c2nnn[nH]2)cc1` [Example 518], the 50% degradation concentration (DC50) (VCaP cells) was over 501 nM. Also, the maximal degradation (Dmax) (read-out: VCaP Dmax (%), VCaP cells) is under 25%.
In the case of `COC(=O)[C@@H]1C[C@@H](O)CN1C(=O)[C@@H](NC(=O)COCCCCCOc1ccc(C(=O)N[C@H]2C(C)(C)[C@H](Oc3ccc(C#N)c(Cl)c3)C2(C)C)cc1)C(C)(C)C` [Example 519], where the note is “VCaP cells”, the 50% degradation concentration (DC50) is under 50 nM. Moreover, under setting [1], the maximal degradation (Dmax) lay within 26 to 50%.
Take `CC(C)[C@H](NC(=O)COCCCCCNc1ccc(C(=O)N[C@H]2C(C)(C)[C@H](Oc3ccc(C#N)c(Cl)c3)C2(C)C)cc1)C(=O)N1C[C@H](O)C[C@H]1C(=O)NCc1ccc(C#N)cc1` [Example 520]: the DC50 (VCaP cells) was over 501 nM. Under setting [1], the Dmax lay in the range of 26 to 50%.
Consider `CC(C)(C)[C@H](NC(=O)COCCCCCNc1ccc(C(=O)N[C@H]2C(C)(C)[C@H](Oc3ccc(C#N)c(Cl)c3)C2(C)C)cc1)C(=O)N1C[C@H](O)C[C@H]1C(=O)NCc1ccc(-c2scnc2C#N)cc1` [Example 521], for which the 50% degradation concentration (DC50) (VCaP cells) was under 50 nM. Further, under setting [1], the greatest degradation seen (Dmax) was in the range of 51 to 70%.
`COc1ccc(CNC(=O)[C@@H]2C[C@@H](O)CN2C(=O)[C@@H](NC(=O)COCCCCCNc2ccc(C(=O)N[C@H]3C(C)(C)[C@H](Oc4ccc(C#N)c(Cl)c4)C3(C)C)cc2)C(C)(C)C)cc1` [Example 522]: the 50% degradation concentration (DC50) (VCaP cells) was under 50 nM. Moreover, the greatest degradation seen (Dmax) under setting [1] lay in the range of 51 to 70%.
With `CC(C)(C)[C@H](NC(=O)COCCCCCNc1ccc(C(=O)N[C@H]2C(C)(C)[C@H](Oc3ccc(C#N)c(Cl)c3)C2(C)C)cc1)C(=O)N1C[C@H](O)C[C@H]1C(=O)NCc1ccc(C#N)nc1` [Example 523], the DC50 (VCaP cells) was under 50 nM. Moreover, the Dmax under setting [1] lay within 51 to 70%.
As for `CC(C)(C)[C@H](NC(=O)COCCNc1ccc(-c2ccc(C(=O)N[C@H]3C(C)(C)[C@H](Oc4ccc(C#N)c(Cl)c4)C3(C)C)cc2)cc1)C(=O)N1C[C@H](O)C[C@H]1C(=O)NCc1ccc(C#N)cc1` [Example 524], the DC50 (VCaP cells) was under 50 nM. The maximal degradation (Dmax) under setting [1] was 51 to 70%.
For `Cc1ncsc1-c1ccc(CNC(=O)[C@@H]2C[C@@H](O)CN2C(=O)[C@@H](NC(=O)COCCN2CCC(c3ccc(C(=O)N[C@H]4C(C)(C)[C@H](Oc5ccc(C#N)c(Cl)c5)C4(C)C)cc3)CC2)C(C)(C)C)cc1` [Example 525] the same measures were over 501 nM and 51 to 70%.
Consider `CC(C)(C)[C@H](NC(=O)COCCCCCNc1ccc(C(=O)N[C@H]2C(C)(C)[C@H](Oc3ccc(C#N)c(Cl)c3)C2(C)C)cc1)C(=O)N1C[C@H](O)C[C@H]1C(=O)NCc1ccc(-n2ccnn2)cc1` [Example 526], for which, for the setting “VCaP cells”, the DC50 was under 50 nM. Also, the maximal degradation (Dmax) under setting [1] was 51 to 70%.
As to `CC(C)(C)[C@H](NC(=O)COCCCCCNc1ccc(C(=O)N[C@H]2C(C)(C)[C@H](Oc3ccc(C#N)c(Cl)c3)C2(C)C)cc1)C(=O)N1C[C@H](O)C[C@H]1C(=O)NCc1ccc(-n2nccn2)cc1` [Example 527], under “VCaP cells”, the DC50 is under 50 nM. Under setting [1], the maximal degradation (Dmax) lay in the range of 26 to 50%.
On to `CC(C)(C)[C@H](NC(=O)COCCCCCNc1ccc(C(=O)N[C@H]2C(C)(C)[C@H](Oc3ccc(C#N)c(Cl)c3)C2(C)C)cc1)C(=O)N1C[C@H](O)C[C@H]1C(=O)NCc1ccc(-c2nnc[nH]2)cc1` [Example 528], for which the DC50 (VCaP cells) was under 50 nM. Also, the greatest degradation seen (Dmax) under setting [1] was in the range of 51 to 70%.
Turning to `CC(C)(C)[C@H](NC(=O)COCCCCCNc1ccc(C(=O)N[C@H]2C(C)(C)[C@H](Oc3ccc(C#N)c(Cl)c3)C2(C)C)cc1)C(=O)N1C[C@H](O)C[C@H]1C(=O)NCc1ccc(-n2ccccc2=O)cc1` [Example 529], the half-maximal degradation concentration (DC50) (VCaP cells) is under 50 nM. Under setting [1], the Dmax is under 25%.
On the same counts, the results for `CC(C)(C)[C@H](NC(=O)COCCCCCNc1ccc(C(=O)N[C@H]2C(C)(C)[C@H](Oc3ccc(C#N)c(Cl)c3)C2(C)C)cc1)C(=O)N1C[C@H](O)C[C@H]1C(=O)NCc1ccc(-n2cncn2)cc1` [Example 530] are under 50 nM and over 71%.
As for `CC(C)(C)[C@H](NC(=O)COCCCCCNc1ccc(C(=O)N[C@H]2C(C)(C)[C@H](Oc3ccc(C#N)c(Cl)c3)C2(C)C)cc1)C(=O)N1C[C@H](O)C[C@H]1C(=O)NCc1ccc(-c2cccnn2)cc1` [Example 531], under “VCaP cells”, the DC50 is under 50 nM. The Dmax under setting [1] was in the range of 26 to 50%.
Regarding `CC(C)(C)[C@H](NC(=O)COCCCCCNc1ccc(C(=O)N[C@H]2C(C)(C)[C@H](Oc3ccc(C#N)c(Cl)c3)C2(C)C)cc1)C(=O)N1C[C@H](O)C[C@H]1C(=O)NCc1ccc(-c2cnccn2)cc1` [Example 532], the DC50 (VCaP cells) was under 50 nM. Under setting [1], the Dmax was in the range of 51 to 70%.
As to `CC(C)(C)[C@H](NC(=O)COCCCCCNc1ccc(C(=O)N[C@H]2C(C)(C)[C@H](Oc3ccc(C#N)c(Cl)c3)C2(C)C)cc1)C(=O)N1C[C@H](O)C[C@H]1C(=O)NCc1ccc(-c2ccncn2)cc1` [Example 533], the DC50 (VCaP cells) is under 50 nM. Further, the Dmax under setting [1] fell in the range of 26 to 50%.
For `CC(C)(C)[C@H](NC(=O)COCCCCCNc1ccc(C(=O)N[C@H]2C(C)(C)[C@H](Oc3ccc(C#N)c(Cl)c3)C2(C)C)cc1)C(=O)N1C[C@H](O)C[C@H]1C(=O)NCc1ccc(-c2cncnc2)cc1` [Example 534] the same measures were under 50 nM and 51 to 70%.
